In PubChem BioAssay AID248 (DTP/NCI, 2004):
Values joined by “and” are separate entries in the source; they are usually repeats but may differ in a detail not shown here. Equal entries are not always repeated. Inconclusive results and toxic doses are left out. Rule as the data show it: active = T/C of 150% or more; inactive = T/C below 125%.

Tested on: L1210 leukemia ip in BDF1 mice, survival T/C
Assay: NCI In Vivo Anticancer Drug Screen. Data for tumor model L1210 Leukemia (intraperitoneal) in B6D2F1 (BDF1) mice
Settings: endpoint: mean survival time, higher = longer survival
Method in brief: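 Transplantable tumor model; survival measured in treated vs vehicle control mice. Value = treated/control.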

[1] = dose: 100.0 mg/kg/injection, schedule: Q01DX001 (ip), vehicle: saline
[2] = dose: 200.0 mg/kg/injection, schedule: Q01DX001 (ip), vehicle: saline
[3] = dose: 100.0 mg/kg/injection, schedule: Q01DX009 (ip), vehicle: saline with Tween-80
[4] = dose: 100.0 mg/kg/injection, schedule: Q04DX002 (ip), vehicle: Klucel (hydroxypropylcellulose) (HPC)
[5] = dose: 200.0 mg/kg/injection, schedule: Q01DX009 (ip), vehicle: saline with Tween-80
[6] = dose: 200.0 mg/kg/injection, schedule: Q04DX002 (ip), vehicle: Klucel (hydroxypropylcellulose) (HPC)
[7] = dose: 400.0 mg/kg/injection, schedule: Q01DX009 (ip), vehicle: saline with Tween-80
[8] = dose: 400.0 mg/kg/injection, schedule: Q04DX002 (ip), vehicle: Klucel (hydroxypropylcellulose) (HPC)
[9] = dose: 100.0 mg/kg/injection, schedule: Q01DX009 (ip), vehicle: Klucel (hydroxypropylcellulose) (HPC)
[10] = dose: 100.0 mg/kg/injection, schedule: Q04DX003 (ip), vehicle: Klucel (hydroxypropylcellulose) (HPC)
[11] = dose: 200.0 mg/kg/injection, schedule: Q01DX009 (ip), vehicle: Klucel (hydroxypropylcellulose) (HPC)
[12] = dose: 200.0 mg/kg/injection, schedule: Q04DX003 (ip), vehicle: Klucel (hydroxypropylcellulose) (HPC)
[13] = dose: 400.0 mg/kg/injection, schedule: Q01DX009 (ip), vehicle: Klucel (hydroxypropylcellulose) (HPC)
[14] = dose: 400.0 mg/kg/injection, schedule: Q04DX003 (ip), vehicle: Klucel (hydroxypropylcellulose) (HPC)
[15] = dose: 50.0 mg/kg/injection, schedule: Q01DX009 (ip), vehicle: saline with Tween-80
[16] = dose: 100.0 mg/kg/injection, schedule: Q04DX003 (ip), vehicle: saline with Tween-80
[17] = dose: 200.0 mg/kg/injection, schedule: Q04DX003 (ip), vehicle: saline with Tween-80
[18] = dose: 6.25 mg/kg/injection, schedule: Q01DX009 (ip), vehicle: saline with Tween-80
[19] = dose: 12.5 mg/kg/injection, schedule: Q01DX009 (ip), vehicle: saline with Tween-80
[20] = dose: 25.0 mg/kg/injection, schedule: Q01DX009 (ip), vehicle: saline with Tween-80
[21] = dose: 100.0 mg/kg/injection, schedule: Q01DX001 (ip), vehicle: carboxymethylcellulose (CMC)
[22] = dose: 200.0 mg/kg/injection, schedule: Q01DX001 (ip), vehicle: carboxymethylcellulose (CMC)
[23] = dose: 400.0 mg/kg/injection, schedule: Q01DX001 (ip), vehicle: carboxymethylcellulose (CMC)
[24] = dose: 400.0 mg/kg/injection, schedule: Q04DX003 (ip), vehicle: saline with Tween-80
[25] = dose: 100.0 mg/kg/injection, schedule: Q04DX002 (ip), vehicle: saline with Tween-80
[26] = dose: 200.0 mg/kg/injection, schedule: Q04DX002 (ip), vehicle: saline with Tween-80
[27] = dose: 400.0 mg/kg/injection, schedule: Q04DX002 (ip), vehicle: saline with Tween-80

Measured: T/C

CC(=O)OC1=CC(=O)C(OC(C)=O)=C(c2c(C)cc(C)c(Br)c2C)C1=O
inactive: dose: 50.0 mg/kg/injection, schedule: Q01DX001 (ip), vehicle: saline 91 % of control | [1] 95 % of control | [2] 101 % of control

N#C/C(=C/c1ccccc1Cl)C(N)=O
inactive: [3] 100 % of control | [4] 100 % of control | [5] 94 % of control | [6] 93 % of control | [7] 94 % of control | [8] 107 % of control

O=C(COc1ccccc1)NCCBr
inactive: [9] 96 % of control | [10] 110 % of control | dose: 133.0 mg/kg/injection, schedule: Q04DX003 (ip), vehicle: Klucel (hydroxypropylcellulose) (HPC) 98 % of control | [11] 102 % of control | [12] 98 % of control | dose: 300.0 mg/kg/injection, schedule: Q04DX003 (ip), vehicle: Klucel (hydroxypropylcellulose) (HPC) 98 % of control | [13] 95 % of control | [14] 101 % of control

CCOC(=O)c1c(NC(=O)CCl)ssc1=S
inactive: [15] 103 % of control | [16] 92 % of control | [17] 91 % of control

O=C(/C=C/C(=O)Oc1c(Cl)c(Cl)c(Cl)c(Cl)c1Cl)Oc1c(Cl)c(Cl)c(Cl)c(Cl)c1Cl
inactive: [9] 100 % of control | [10] 111 % of control | [11] 104 % of control | [12] 93 % of control | [13] 100 % of control | [14] 105 % of control

Nc1ccnc2cc(Cl)ccc12
inactive: dose: 75.0 mg/kg/injection, schedule: Q01DX001 (ip), vehicle: other 103 % of control | dose: 150.0 mg/kg/injection, schedule: Q01DX001 (ip), vehicle: other 100 % of control

ClCc1ccc2ccccc2n1
inactive: dose: 50.0 mg/kg/injection, schedule: Q04DX003 (ip), vehicle: saline with Tween-80 104 % of control | [16] 102 % of control | [17] 93 % of control

CC(C)OC(=S)SSC(=S)OC(C)C
inactive: dose: 50.0 mg/kg/injection, schedule: Q01DX009 (ip), vehicle: Klucel (hydroxypropylcellulose) (HPC) 105 % of control | [1] 96 % of control | [9] 92 % of control | dose: 100.0 mg/kg/injection, schedule: Q04DX003 (ip), vehicle: other 107 % of control | [2] 100 % of control | [11] 90 % of control | dose: 200.0 mg/kg/injection, schedule: Q04DX003 (ip), vehicle: other 98 % of control | dose: 400.0 mg/kg/injection, schedule: Q01DX001 (ip), vehicle: saline 102 % of control

c1cc2c(cc1NC1=NCCO1)CCC2
inactive: [18] 107 % of control | [19] 95 % of control | [20] 114 % of control

O=C(c1ccccc1)C(Br)C(C(=O)c1ccccc1)c1ccccc1 (stereo not drawn)
inactive: [15] 94 % of control | [3] 90 % of control | [5] 86 % of control

Nc1nc(Cl)c(N=Nc2ccc(Cl)cc2)c(NC2CC(O)C(CO)C2)n1 (stereo not drawn)
inactive: [4] 104 % of control | [6] 100 % of control | [8] 96 % of control

CCCCCCCCCCSCCCCCCCCSCCCCCCCCCC
inactive: dose: 100.0 mg/kg/injection, schedule: Q01DX001 (ip), vehicle: Klucel (hydroxypropylcellulose) (HPC) 94 % of control | dose: 200.0 mg/kg/injection, schedule: Q01DX001 (ip), vehicle: Klucel (hydroxypropylcellulose) (HPC) 87 % of control | dose: 400.0 mg/kg/injection, schedule: Q01DX001 (ip), vehicle: Klucel (hydroxypropylcellulose) (HPC) 96 % of control

O=C(Nc1ncccn1)Nc1ccccc1C(F)(F)F
inactive: dose: 100.0 mg/kg/injection, schedule: Q01DX009 (ip), vehicle: gum acacia 88 % of control | dose: 200.0 mg/kg/injection, schedule: Q01DX009 (ip), vehicle: gum acacia 86 % of control | dose: 400.0 mg/kg/injection, schedule: Q01DX009 (ip), vehicle: gum acacia 88 % of control

CCOC(=O)NCC(CCCCN(C)C)(c1cccc2ccccc12)C(C)CC (stereo not drawn)
inactive: [19] 96 % of control | [20] 97 % of control | [15] 100 % of control

CNC(=O)Oc1cccc(CN(C)C)c1
inactive: dose: 5.0 mg/kg/injection, schedule: Q01DX001 (ip), vehicle: saline 98 % of control | dose: 10.0 mg/kg/injection, schedule: Q01DX001 (ip), vehicle: saline 96 % of control | dose: 20.0 mg/kg/injection, schedule: Q01DX001 (ip), vehicle: saline 96 % of control

Cc1ncc(CCl)c2c1OC(C)(C)OC2
inactive: dose: 75.0 mg/kg/injection, schedule: Q01DX001 (ip), vehicle: saline 100 % of control | [1] 100 % of control | dose: 150.0 mg/kg/injection, schedule: Q01DX001 (ip), vehicle: saline 101 % of control | [2] 94 % of control

CC(=O)C1C(N2CC2)CC2C3CCC4=CC(=O)CCC4(C)C3CCC21C (stereo not drawn)
inactive: dose: 50.0 mg/kg/injection, schedule: Q01DX001 (sc), vehicle: steriod suspending solution 101 % of control | dose: 100.0 mg/kg/injection, schedule: Q01DX001 (sc), vehicle: steriod suspending solution 104 % of control | dose: 200.0 mg/kg/injection, schedule: Q01DX001 (sc), vehicle: steriod suspending solution 101 % of control

CCOc1cccc2c1OC(CN1CCC3(CC1)C(=O)NCN3c1ccccc1)CO2 (stereo not drawn)
inactive: [10] 116 % of control | [12] 115 % of control | [14] 115 % of control

O=C(O)CCNc1ccccc1C(=O)O
inactive: [21] 100 % of control | [22] 96 % of control | [23] 100 % of control

O=C(Oc1ccccc1Cl)c1ccc(Cl)c(Cl)c1
inactive: [9] 98 % of control | [10] 95 % of control | [11] 93 % of control | [12] 90 % of control | [13] 90 % of control | [14] 90 % of control

Nc1nc(N)c2cc(CNc3ccc(C(=O)NC(CCCC(=O)O)C(=O)O)cc3)ccc2n1 (stereo not drawn)
inactive: dose: 0.25 mg/kg/injection, schedule: Q01DX009 (ip), vehicle: saline 124 % of control | dose: 0.5 mg/kg/injection, schedule: Q01DX009 (ip), vehicle: saline 117 % of control | dose: 2.0 mg/kg/injection, schedule: Q01DX009 (ip), vehicle: saline 101 % of control | dose: 16.0 mg/kg/injection, schedule: Q04DX003 (ip), vehicle: saline 92 % of control

COc1cccc(NC(=O)Nc2ccccc2C(F)(F)F)c1
inactive: [18] 92 % of control | [19] 92 % of control | [20] 90 % of control | [15] 90 % of control | [3] 94 % of control

CC(C)N(C(=O)c1ccc(C(=O)N(c2ccccc2)C(C)C)cc1)c1ccccc1
inactive: [3] 92 % of control | [16] 100 % of control | [5] 90 % of control | [17] 94 % of control | [7] 86 % of control | [24] 87 % of control

CCCS(=O)(=O)N1CCCC1
inactive: [25] 99 % of control | [26] 105 % of control | [27] 99 % of control

CSc1ccc(NC(=O)Oc2cc3ccccc3cc2C(=O)Nc2ccc(Cl)cc2)cc1
inactive: [3] 99 % of control and 86 % of control | [25] 88 % of control | [16] 90 % of control | [5] 111 % of control and 89 % of control | [26] 91 % of control and 92 % of control | [17] 92 % of control | [7] 95 % of control and 96 % of control | [27] 94 % of control and 103 % of control | [24] 87 % of control

CN(CCSSCCN(C)C(N)=S)C(N)=S
inactive: dose: 75.0 mg/kg/injection, schedule: Q04DX003 (ip), vehicle: saline 96 % of control | dose: 150.0 mg/kg/injection, schedule: Q04DX003 (ip), vehicle: saline 87 % of control | dose: 300.0 mg/kg/injection, schedule: Q04DX003 (ip), vehicle: saline 96 % of control

Cc1c(C(=O)c2ccccc2)c2ccccc2n1C
inactive: dose: 50.0 mg/kg/injection, schedule: Q01DX001 (ip), vehicle: carboxymethylcellulose (CMC) 96 % of control | [21] 91 % of control | [22] 93 % of control | [23] 93 % of control
